Data set [1] in a line: Cytotoxicity against human HOG.R5 cells. It counts as cell-based.
Data set [2] is described as follows: Selectivity index, ratio of CC50 for HOG.R5 cells to IC50 for HIV1 3B. Type of data set: functional.
Data set [3] concerns Human immunodeficiency virus 1. Kind of data set: Antiviral activity against HIV1 3B infected in human HOG.R5 assessed as inhibition of viral replication by microtiter assay. It counts as functional, organism-based. The note with it: Human immunodeficiency virus 1, 3B.
A short description of data set [4]: Cytotoxicity against human HOG.R5 cells at 20 ug/ml. Type of data set: cell-based.
Data set [5] has as its system Human immunodeficiency virus 1. Kind of data set: Antiviral activity against HIV1 3B infected in human HOG.R5 assessed as inhibition of viral replication at 20 ug/ml by microtiter assay. Type of data set: functional. The note with it: Human immunodeficiency virus 1, 3B.
Data set [6] concerns Human immunodeficiency virus 1. Put plainly: Antiviral activity against HIV1 3B infected in human HOG.R5 assessed as inhibition of viral replication at 2.5 ug/ml by microtiter assay. It counts as functional. The note with it: Human immunodeficiency virus 1, 3B.

The term CC50 denotes the concentration that lowers cell viability or growth by half. As a reminder, the IC50 is the concentration needed to halve the response being measured. In data set [1], `CC(=O)/C=C/C[C@@H](C)[C@H]1CC[C@@]2(C)[C@@H]3CC[C@H]4C(C)(C)C(=O)CC[C@@]45C[C@@]35CC[C@]12C` [VATICINONE] had a half-maximal cytotoxic concentration (CC50) of 21.5 µM. Further, the “Ratio CC50/IC50” value in data set [2] came out at 1.4. In data set [3], the IC50 worked out at 15.3 µM.
`C=C(C)[C@@H]1CC[C@]2(C(=O)O)CC[C@]3(C)[C@H](CC[C@@H]4[C@@]5(C)CCC(=O)C(C)(C)[C@@H]5CC[C@]43C)[C@@H]12` [BETUNOLIC ACID] gave a 50% cytotoxic concentration (CC50) in data set [1] of 105 µM. In addition, the IC50 in data set [3] was determined as 21.4 µM.
Regarding `C=C(C/C=C/C(C)(C)O)[C@H]1CC[C@]2(C)[C@@H]1CC[C@@H]1[C@@]3(C)CC[C@H](O)C(C)(C)[C@@H]3CC[C@]12C`, in data set [1], it took 30.3 µM to reach half-maximal cytotoxicity (CC50). In addition, the “Ratio CC50/IC50” value in data set [2] came out at 1.3. For the same compound, the IC50 in data set [3] was found to be 22.6 µM.
The inhibition is the change of the read-out against control, counted positive when it falls. `CC(CCC[C@@H](C)[C@H]1CC[C@@]2(C)[C@@H]3CC[C@H]4C(C)(C)C(=O)CC[C@@]45C[C@@]35CC[C@]12C)C(=O)O` (stereo partly specified) [DIHYDROSCHIZANDRONIC ACID] yielded a CC50 in data set [1] of 43.9 µM. For the same compound, the concentration for half-maximal inhibition (IC50) in data set [3] stood at 43.9 µM. The Activity entry in data set [4] was “Non-toxic”. Further, the inhibition at 20 µg/mL in data set [5] came out at 0%.
`C/C(=C\CC[C@@H](C)[C@H]1CC[C@@]2(C)[C@@H]3CC[C@H]4C(C)(C)C(=O)CC[C@@]45C[C@@]35CC[C@]12C)C(=O)O` [MANGIFERONIC ACID] came in with a CC50 in data set [1] of 44.1 µM. In data set [3], the IC50 was found to be 44.1 µM. Further, the Activity result in data set [4] is “Non-toxic”. Besides, the inhibition at 20 µg/mL in data set [5] was determined as 19%.
For `C=C(C)[C@@H]1CC[C@]2(C(=O)O)CC[C@]3(C)[C@H](CC[C@@H]4[C@@]5(C)CC[C@H](O)C(C)(C)[C@@H]5CC[C@]43C)[C@@H]12` [BETULINIC ACID], in data set [1], the CC50 was found to be 36 µM. In data set [2], the “Ratio CC50/IC50” value was determined as 1.1. Also, in data set [3], the IC50 is 32.5 µM.
On the same counts, the results for `C=C(CC[C@H](O)C(=C)C)[C@H]1CC[C@]2(C)[C@@H]1CC[C@@H]1[C@@]3(C)CC[C@H](O)C(C)(C)[C@@H]3CC[C@]12C` are 14.3 µM, 2.3 and 6.1 µM.
In data set [1], `C/C(=C\CC[C@@H](C)[C@H]1CC[C@@]2(C)C3=C(CC[C@]12C)[C@@]1(C)CCC(=O)C(C)(C)[C@@H]1CC3)C(=O)O` registered a CC50 of 14.8 µM. For the same compound, the “Ratio CC50/IC50” value in data set [2] came to 1.7. The concentration for half-maximal inhibition (IC50) in data set [3] was 8.6 µM.
In the case of `CC1=C2[C@@H]3[C@H](CC[C@H](C)[C@]2(O)CC1=O)C3(C)C`, in data set [1], the cytotoxic concentration (CC50) is 85.5 µM. The “Ratio CC50/IC50” value in data set [2] is above 1. The IC50 in data set [3] was 88 µM. For the same compound, the Activity result in data set [4] is reported as “Non-toxic”.
In data set [1], `C=Cc1c(C)c2cc3nc(c4c5[nH]c(cc6nc(cc1[nH]2)C(C)=C6CC)c(C)c5C(=O)[C@@H]4C(=O)OC)[C@@H](CCC(=O)O)[C@@H]3C` [PHEOPHORBIDE A] displayed a 50% cytotoxic concentration (CC50) of 33.8 µM. Moreover, the “Ratio CC50/IC50” value in data set [2] was above 13. In addition, the half-maximal inhibitory concentration (IC50) in data set [3] was determined as 2.5 µM.
On the same counts, the results for `C[C@H]1[C@H](C)CC[C@]2(C(=O)O)CC[C@]3(C)C(=CC[C@@H]4[C@@]5(C)CC[C@H](O)C(C)(C)[C@@H]5CC[C@]43C)[C@H]12` [URSOLIC ACID] are 15.8 µM, 4.9 and 14.7 µM.
For `CC(=O)/C=C/C[C@@H](C)[C@H]1CC[C@@]2(C)[C@@H]3CC[C@H]4C(C)(C)[C@@H](O)CC[C@@]45C[C@@]35CC[C@]12C`, the 50% cytotoxic concentration (CC50) in data set [1] was 12.7 µM. The inhibition at 2.5 µg/mL in data set [6] worked out at 21%. The half-maximal inhibitory concentration (IC50) in data set [3] came out at 5.9 µM.
`CC1(C)CC[C@]2(CO)CC[C@]3(C)C(=CC[C@@H]4[C@@]5(C)CC[C@H](O)C(C)(C)[C@@H]5CC[C@]43C)[C@@H]2C1` [ERYTHRODIOL] gave a CC50 in data set [1] of 45.2 µM. The “Ratio CC50/IC50” value in data set [2] is given as above 1. In addition, in data set [3], the half-inhibitory concentration (IC50) is 45.2 µM. Further, the Activity result in data set [4] is recorded as “Non-toxic”. In data set [5], the inhibition at 20 µg/mL came out at 33%.
`C=C(C)[C@@H]1CC[C@]2(CO)CC[C@]3(C)[C@H](CC[C@@H]4[C@@]5(C)CC[C@H](O)C(C)(C)[C@@H]5CC[C@]43C)[C@@H]12` [BETULIN] returned a CC50 in data set [1] of 19.5 µM. The “Ratio CC50/IC50” value in data set [2] is recorded as 1.4. In data set [3], the IC50 was determined as 13.8 µM.
